US20250011881A1, “MYC-HSF1 DUAL AMPLIFICATION AS A BIOMARKER FOR CANCER TREATMENT” (The Trustees of Indiana University, priority 2023, published 2025)
Where “and” joins values, the source holds several entries; their conditions need not be identical. Equal values may be shown once. Where a name gives a salt, the structure may show the parent alone. Read-outs that look alike come from different tables or passages of the source.

System: ovarian cancer cells with (OVCAR8, OVCAR4) or without (OVSAHO, CAOV3) MYC-HSF1 amplification
Experiment: Epigenetic inhibitor drug screen, cell viability (Cell Titer Blue)
Assay type: cell-based
[1] = 10 uM, 48 hrs, average relative cell viability (vs 1% DMSO) of non-amplified cells (OVSAHO, CAOV3) minus that of MYC-HSF1 amplified cells (OVCAR8, OVCAR4), positive = greater response in amplified cells
[2] = 10 uM, 48 hrs, average relative cell viability (vs 1% DMSO) of non-amplified cells (OVSAHO, CAOV3) minus that of MYC-HSF1 amplified cells (OVCAR8, OVCAR4), positive = greater response in amplified cells, 10 µM

C[C@H](NC(=O)CCc1nc2ccccc2c(=O)[nH]1)c1ccccc1 [ME0328]
Non Amp - AMP (POC) 10 uM [1]: 15.81 POC

CCCCCCCc1ccc(CCc2cccc(O)c2C(=O)O)cc1 [MG 149]
Non Amp - AMP (POC) 10 uM [1]: −0.4614 POC

CCCc1cc2c(N3CCN(C4=NCC(C)(C)S4)CC3)ncnc2s1 [MI-2 (hydrochloride)]
Non Amp - AMP (POC) 10 uM [2]: 6.017 POC

CCCc1cc2c(N3CCN(C4=NCC(C)(C)S4)CC3)ncnc2s1 [MI-2]
Non Amp - AMP (POC) 10 uM [2]: 8.542 POC

NC(=O)c1cccc2cn(-c3ccc([C@@H]4CCCNC4)cc3)nc12 [MK-4827]
Non Amp - AMP (POC) 10 uM: −0.7556 POC

O=C(O)[C@]1(Cc2cccc(Nc3nccs3)n2)CC[C@@H](Oc2cccc(Cl)c2F)CC1 [MK-5108 (VX-689)]
Non Amp - AMP (POC) 10 uM [1]: 0.08992 POC

O=C(c1cccc(Cl)c1F)N1CCN(Cc2cccc(Nc3nccs3)n2)CC1 [MK-8745]
Non Amp - AMP (POC) 10 uM [1]: 10.66 POC

CN(C)CCCNC(=O)c1ccc(-c2cc(O)c3ncccc3c2)cc1 [ML-324]
Non Amp - AMP (POC) 10 uM [2]: 7.484 POC | Non Amp - AMP (POC) 10 uM (10 uM, 48 hrs, average relative cell viability (vs 1% DMSO) of non-amplified cells (OVSAHO, CAOV3) minus that of MYC-HSF1 amplified cells (OVCAR8, OVCAR4), positive = greater response in amplified cells, listed as ML324, 10 µM): 4.315 POC

O=C(O)c1ccc(Nc2ncc3c(n2)-c2ccc(Cl)cc2C(c2c(F)cccc2F)=NC3)cc1 [MLN8054]
Non Amp - AMP (POC) 10 uM [1]: −12.87 POC

COc1cc(Nc2ncc3c(n2)-c2ccc(Cl)cc2C(c2c(F)cccc2OC)=NC3)ccc1C(=O)O [MLN8237 (Alisertib), Alisertib]
Non Amp - AMP (POC) 10 uM [1]: −25.51 POC

CCC(CC)(NC(=O)C(C)C)C(=O)N[C@@H](CCCN=C(N)N)C(=O)NC1(C(=O)NC(c2ccc(F)cc2)c2ccc(F)cc2)CCCC1 [MM-102]
Non Amp - AMP (POC) 10 uM [2]: 10.41 POC and 6.837 POC

CC(C)c1ccc(-c2cc(=O)c3ccccc3o2)cc1 [MN 64]
Non Amp - AMP (POC) 10 uM [1]: −7.835 POC

CC(C)Oc1ccc(-c2c[nH]cc2CN(C)CCN)cc1 [MS023 (hydrochloride)]
Non Amp - AMP (POC) 10 uM [2]: 6.531 POC

CC(C)Oc1ccc(-c2c[nH]cc2CN(C)CCN)cc1 [MS023]
Non Amp - AMP (POC) 10 uM [2]: −0.6323 POC

CNCCN1CCC(OCc2ccccc2)CC1.Cl.Cl [MS049 (hydrochloride)]
Non Amp - AMP (POC) 10 uM [1]: −3.654 POC

Cc1cc(/N=N/c2ccc(S(=O)(=O)Nc3ccccn3)cc2)c(N)cc1O [MS436]
Non Amp - AMP (POC) 10 uM [1]: 8.852 POC

COC(=O)/C=C/C(=O)N(O)CCCCNCc1ccc(COC(=O)Nc2cccc3ccccc23)cc1 [Methylstat (hydrate), Methylstat]
Non Amp - AMP (POC) 10 uM [1]: −5.079 POC

CO[C@@H]1[C@H](N(C)C(=O)c2ccccc2)C[C@H]2O[C@]1(C)n1c3ccccc3c3c4c(c5c6ccccc6n2c5c31)C(=O)NC4 [Midostaurin (PKC412), Midostaurin]
Non Amp - AMP (POC) 10 uM [1]: −9.891 POC

N=C1NC(=O)/C(=C/c2ccc(O)cc2)S1 [Mirin]
Non Amp - AMP (POC) 10 uM: 4.24 POC

CO[C@@]12[C@H](COC(N)=O)C3=C(C(=O)C(C)=C(N)C3=O)N1C[C@@H]1N[C@@H]12 [Mitomycin C]
Non Amp - AMP (POC) 10 uM: 14.14 POC

O=C1c2c(O)ccc(O)c2C(=O)c2c(NCCNCCO)ccc(NCCNCCO)c21 [Mitoxantrone HCl]
Non Amp - AMP (POC) 10 uM [1]: 11.28 POC

Nc1ccccc1NC(=O)c1ccc(CNc2nccc(-c3cccnc3)n2)cc1 [Mocetinostat]
Non Amp - AMP (POC) 10 uM [2]: 49.31 POC | Non Amp - AMP (POC) 10 uM (10 uM, 48 hrs, average relative cell viability (vs 1% DMSO) of non-amplified cells (OVSAHO, CAOV3) minus that of MYC-HSF1 amplified cells (OVCAR8, OVCAR4), positive = greater response in amplified cells, listed as Mocetinostat (MGCD0103, MG0103), 10 µM): 36.88 POC

O=c1c(-n2ccnn2)c[nH]n1-c1cc(N2CCOCC2)ncn1 [Molidustat (BAY85-3934), Molidustat]
Non Amp - AMP (POC) 10 uM [1]: −4.287 POC

C[C@@H]1O[C@@H](Oc2c(-c3cc(O)c(O)c(O)c3)oc3cc(O)cc(O)c3c2=O)[C@H](O)[C@H](O)[C@H]1O [Myricetrin]
Non Amp - AMP (POC) 10 uM [1]: −0.2723 POC

O=C(O)CNC(=O)C(=O)O [N-Oxalylglycine]
Non Amp - AMP (POC) 10 uM [1]: 14.36 POC

CC(C)C(=O)SCCCCCCC(=O)Nc1nc(-c2ccccc2)cs1 [NCH-51]
Non Amp - AMP (POC) 10 uM [2]: 27.52 POC | Non Amp - AMP (POC) 10 uM (10 uM, 48 hrs, average relative cell viability (vs 1% DMSO) of non-amplified cells (OVSAHO, CAOV3) minus that of MYC-HSF1 amplified cells (OVCAR8, OVCAR4), positive = greater response in amplified cells, listed as NCH 51, 10 µM): 9.119 POC

COc1cc(C#N)ccc1S(=O)(=O)Nc1ccc2c(c1)cc(C)c(=O)n2C [NI-57]
Non Amp - AMP (POC) 10 uM [1]: 11.2 POC

O=[N+]([O-])c1ccc(Sc2cccc[n+]2[O-])c2nonc12 [NSC228155]
Non Amp - AMP (POC) 10 uM [1]: 4.767 POC

O=Nc1ccc(O)c2ncccc12 [NSC 3852]
Non Amp - AMP (POC) 10 uM [2]: 27.71 POC

O=S(=O)(O)c1ccc2cc(N=Nc3cc(S(=O)(=O)O)c4cccnc4c3O)ccc2c1 [NSC 87877]
Non Amp - AMP (POC) 10 uM [1]: 8.877 POC

Fc1cc(-c2cccc3ncc(-c4cnn(C5CCNCC5)c4)nc23)cc(F)c1CN1CCOCC1 [NVP-BSK805 2HCl]
Non Amp - AMP (POC) 10 uM [2]: −12.67 POC

Fc1cc(-c2cccc3ncc(-c4cnn(C5CCNCC5)c4)nc23)cc(F)c1CN1CCOCC1 [NVP-BSK805]
Non Amp - AMP (POC) 10 uM [2]: −1.371 POC

C[C@@H]1O[C@@H](CC(=O)O)CC2=C1C(=O)c1c(O)cccc1C2=O [Nanaomycin A]
Non Amp - AMP (POC) 10 uM [1]: 2.594 POC

[NH2][Pt]1([NH2])[O]CC(=O)[O]1 [Nedaplatin]
Non Amp - AMP (POC) 10 uM: −10.66 POC

CCCCN(Cc1ccc(C(=O)NO)cc1)C(=O)Nc1ccccc1 [Nexturastat A]
Non Amp - AMP (POC) 10 uM [1]: 23.67 POC

NC(=O)c1cccnc1 [Nicotinamide]
Non Amp - AMP (POC) 10 uM [1]: −2.471 POC

CN1CCN(c2ccc(-c3cccc(CN4CCOCC4)c3)cc2NC(=O)c2c[nH]c(=O)cc2C(F)(F)F)CC1 [OICR-9429]
Non Amp - AMP (POC) 10 uM [1]: 12.58 POC

Cc1sc2c(c1C)C(c1ccc(Cl)cc1)=N[C@@H](CC(=O)Nc1ccc(O)cc1)c1nnc(C)n1-2 [OTX015]
Non Amp - AMP (POC) 10 uM [2]: 15.65 POC | Non Amp - AMP (POC) 10 uM (10 uM, 48 hrs, average relative cell viability (vs 1% DMSO) of non-amplified cells (OVSAHO, CAOV3) minus that of MYC-HSF1 amplified cells (OVCAR8, OVCAR4), positive = greater response in amplified cells, listed as OTX-015, 10 µM): 2.251 POC

CCCCCCCCOC(=O)C(O)CCC(=O)O (stereo not drawn) [Octyl-a-hydroxyglutarate]
Non Amp - AMP (POC) 10 uM [1]: 0.5587 POC

CC1COc2c(N3CCN(C)CC3)c(F)cc3c(=O)c(C(=O)O)cn1c23 (stereo not drawn) [Ofloxacin]
Non Amp - AMP (POC) 10 uM [1]: 5.913 POC

O=C(c1cc(Cc2n[nH]c(=O)c3ccccc23)ccc1F)N1CCN(C(=O)C2CC2)CC1 [Olaparib (AZD2281, Ku-0059436), Olaparib]
Non Amp - AMP (POC) 10 uM [1]: 3.527 POC

Nc1ccccc1NC(=O)CCCCCC(=O)Nc1ccccc1 [PAOA]
Non Amp - AMP (POC) 10 uM [1]: 29.57 POC

Cc1ccc(-n2sc3ccccc3c2=O)cc1 [PBIT]
Non Amp - AMP (POC) 10 uM: −46.19 POC

CN(C)Cc1c(C(=O)NCCOc2ccc(C(=O)NO)cc2)oc2ccccc12 [PCI 24781]
Non Amp - AMP (POC) 10 uM [2]: 42.57 POC | Non Amp - AMP (POC) 10 uM (10 uM, 48 hrs, average relative cell viability (vs 1% DMSO) of non-amplified cells (OVSAHO, CAOV3) minus that of MYC-HSF1 amplified cells (OVCAR8, OVCAR4), positive = greater response in amplified cells, listed as PCI-24781 (CRA-024781), 10 µM): 28.7 POC

COc1ccc(Cn2ccc3ccc(C(=O)NO)cc32)cc1 [PCI 34051]
Non Amp - AMP (POC) 10 uM (10 µM): −4.834 POC | Non Amp - AMP (POC) 10 uM (listed as PCI-34051, 10 µM): −22.68 POC

CCCOc1ccc(CCc2nc3cc(-c4c(C)noc4C)ccc3n2CCN2CCOCC2)cc1.Cl [PF-CBP1 hydrochloride]
Non Amp - AMP (POC) 10 uM [1]: 9.953 POC

COc1ccccc1S(=O)(=O)Nc1ccc2c(c1)CN(C)C(=O)N2 [PFI-1]
Non Amp - AMP (POC) 10 uM [2]: 9.637 POC | Non Amp - AMP (POC) 10 uM (10 uM, 48 hrs, average relative cell viability (vs 1% DMSO) of non-amplified cells (OVSAHO, CAOV3) minus that of MYC-HSF1 amplified cells (OVCAR8, OVCAR4), positive = greater response in amplified cells, listed as PFI-1 (PF-6405761), 10 µM): 2.51 POC

Cl.O=C([C@@H](Cc1cccc(C(F)(F)F)c1)NS(=O)(=O)c1cc(F)c2c(c1)CCNC2)N1CCCC1 [PFI-2 (hydrochloride)]
Non Amp - AMP (POC) 10 uM [2]: 2.189 POC

O=C([C@@H](Cc1cccc(C(F)(F)F)c1)NS(=O)(=O)c1cc(F)c2c(c1)CCNC2)N1CCCC1 [PFI-2]
Non Amp - AMP (POC) 10 uM [1]: −2.63 POC

O=C(/C=C/N1C[C@H]2C[C@@H]1CN2c1ccccn1)c1ccccc1O [PFI-3]
Non Amp - AMP (POC) 10 uM [2]: 12.92 POC | Non Amp - AMP (POC) 10 uM (10 uM, 48 hrs, average relative cell viability (vs 1% DMSO) of non-amplified cells (OVSAHO, CAOV3) minus that of MYC-HSF1 amplified cells (OVCAR8, OVCAR4), positive = greater response in amplified cells, listed as PFI 3, 10 µM): 5.077 POC

COc1ccccc1C(=O)Nc1cc2c(cc1N1CCCC1)n(C)c(=O)n2C [PFI-4]
Non Amp - AMP (POC) 10 uM [2]: 17.43 POC | Non Amp - AMP (POC) 10 uM (10 uM, 48 hrs, average relative cell viability (vs 1% DMSO) of non-amplified cells (OVSAHO, CAOV3) minus that of MYC-HSF1 amplified cells (OVCAR8, OVCAR4), positive = greater response in amplified cells, listed as PFI 4, 10 µM): −0.5403 POC

CCc1cccc(CC)c1NC(=O)N1Cc2n[nH]c(NC(=O)c3ccc(N4CCN(C)CC4)cc3)c2C1 [PHA-680632]
Non Amp - AMP (POC) 10 uM [1]: −11.28 POC

CN(C)CC(=O)Nc1ccc2[nH]c(=O)c3ccccc3c2c1.Cl [PJ34 hydrochloride]
Non Amp - AMP (POC) 10 uM [1]: 3.696 POC

O=C1C(=Cc2cccnc2)C(=O)c2ccccc21 [PRT4165]
Non Amp - AMP (POC) 10 uM [1]: 1.398 POC

O=C(CBr)c1ccc(O)cc1 [PTP Inhibitor I]
Non Amp - AMP (POC) 10 uM [1]: −3.586 POC

CCC(C)SSc1ncc[nH]1 (stereo not drawn) [PX 12]
Non Amp - AMP (POC) 10 uM [1]: −7.518 POC

C1=C/COCc2cc(ccc2OCCN2CCCC2)Nc2nccc(n2)-c2cccc(c2)COC/1 [Pacritinib (SB1518), Pacritinib]
Non Amp - AMP (POC) 10 uM [1]: −2.391 POC
